Laboratory results reported in patent US20150119363A1, “METHODS OF TREATING BACTERIAL INFECTIONS” (Rampex Pharmaceuticals, Inc., priority 2012, published 2015).

Experiments:
[1] = system: Acinetobacter baumannii AB1054 (OXA-23); assay: Checkerboard assay, biapenem potentiation (MPC8); type: cell-based; details: concentration to reduce biapenem MIC 8-fold
Procedure: (§1) The potency and spectrum of β-lactamase inhibitors was determined by assessing their antibiotic potentiation activity.
(§2) The potentiation effect is observed by the reduction of the minimum inhibitory concentration of β-lactam antibiotics in the presence of β-lactamase inhibitors (BLIs). […] Methods for Dilution of Antimicrobial Susceptibility Tests for Bacteria That Grow Aerobically—Eighth Edition; Approved Standard. CLSI Document M07-A8, 2009). In this assay, multiple dilutions of two drugs, namely BLI and β-lactam (biapenem), are being tested, alone and in combination, at concentrations equal to, above and below their respective minimal inhibitory concentrations (MICs). BLIs are solubilized in 10% DMSO at 10 mg/mL. Stock solutions are further diluted, according to the needs of a particular assay, in Mueller Hinton Broth (MHB). Stock solution can be stored at −80° C.
(§3) The checkerboard (CB) assay is performed in microtiter plates. Biapenem is diluted in the x axis, each column containing a single concentration of antibiotic. BLIs are diluted in the y axis, each row containing an equal concentration of BLI. The result of these manipulations is that each well of the microtiter plate contains a unique combination of concentrations of the two agents. The assay is performed in MHB with a final bacterial inoculum of 5×10^5 CFU/mL (from an early-log phase culture). Microtiter plates are incubated during 20 h at 35° C. and are read using a microtiter plate reader (Molecular Devices) at 650 nm as well as visual observation using a microtiter plate reading mirror.
(§4) Biapenem is a carbapenem β-lactam; only selected β-lactamases confer resistance to this class of antibiotics. Among them are serine carbapemenases that belong to class A and class D. Biapenem potentiation is studied in strains expressing various carbapenemases from these classes using CB assays. […] Cyclic boronic acid derivatives were capable of reducing biapenem MICs up to 1000-fold (Table 3).

[2] = system: Acinetobacter baumannii AB1057 (OXA-58); assay: Checkerboard assay, biapenem potentiation (MPC8); type: cell-based; details: concentration to reduce biapenem MIC 8-fold
Procedure: as §1, §2, §3, §4

[3] = system: Klebsiella pneumoniae KP1004 (KPC-2); assay: Checkerboard assay, biapenem potentiation (MPC8); type: cell-based; details: concentration to reduce biapenem MIC 8-fold
Procedure: as §1, §2, §3, §4

ECL1004 NMC-A = assay: Dose titration biapenem potentiation assay (MPC1); type: cell-based, Enterobacter cloacae; details: biapenem 1 μg/mL
Procedure, shortened: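 Growth of carbapenemase-expressing strains measured with biapenem held at a sub-inhibitory 1 μg/mL; BLI compounds titrated from a top concentration of 40 μg/mL. MPC1 is the inhibitor concentration that restores growth inhibition by biapenem.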

[4] = system: Klebsiella pneumonia (KP1004) KPC-2; assay: Biapenem MIC at various concentrations of Compound 5; type: cell-based; details: KP1004 KPC-2
[5] = system: bacterial strains that expressed the beta-lactamase, KPC-2 alone or in combination with NDM-1; assay: Biapenem MIC at various concentrations of Compound 5 (summary); type: cell-based
[6] = system: E. coli EC1061 (NDM-1 CMY-6); assay: Aztreonam/Tigemonam MIC at various concentrations of BLI; type: cell-based; details: EC1061
Procedure: MIC values for each bacterial strain were measured for each antimicrobial compound at various concentrations of each BLI. […]

O=C(O)C[C@@H]1CC[C@H](NC(=O)Cc2cccs2)B(O)O1 [Compound 5, 2-((3R,6S)-2-hydroxy-3-(2-(thiophen-2-yl)acetamido)-1,2-oxaborinan-6-yl)acetic acid]
MPC8 [1]: Z (Z = MPC8 of greater than 1 μg/mL.)
MPC8 [2]: Z (Z = MPC8 of greater than 1 μg/mL.)
MPC8 [3]: X (X = MPC8 of less than 0.16 μg/mL.)
BPM MPC1 ECL1004 NMC-A (ECL1004 NMC-A): X (X = MPC1 of less than 1 μg/mL.)
Biapenem MIC ([4]; Compound 5 0.31 μg/ml): 0.5 µg/mL
Biapenem MIC ([4]; Compound 5 0.63 μg/ml): 0.25 µg/mL
Biapenem MIC ([4]; Compound 5 5 μg/ml): 0.06 µg/mL
Biapenem MIC (μg/ml) ([4]; Compound 5 10 μg/ml): ≦0.03 μg/ml
Biapenem MIC (μg/ml) ([4]; Compound 5 20 μg/ml): ≦0.03 μg/ml
effect on Biapenem MIC [5]: decreased the Biapenem MIC
Aztreonam MIC (μg/ml) in the presence of BLI ([6]; Compound 5 0.31 μg/ml): 4 µg/mL
Aztreonam MIC (μg/ml) in the presence of BLI ([6]; Compound 5 0.63 μg/ml): 4 µg/mL
Aztreonam MIC (μg/ml) in the presence of BLI ([6]; Compound 5 5 μg/ml): 0.5 µg/mL
Aztreonam MIC (μg/ml) in the presence of BLI ([6]; Compound 5 10 μg/ml): 0.5 µg/mL
Aztreonam MIC (μg/ml) in the presence of BLI ([6]; Compound 5 20 μg/ml): 0.5 µg/mL
Aztreonam MIC (μg/ml) in the presence of BLI ([6]; Compound 5 […]): 2 µg/mL
